This note sets out measurements from article PMC8347512, “Synthesis and Biological Assessment of 4,1-Benzothiazepines with Neuroprotective Activity on the Ca^2+ Overload for the Treatment of Neurodegenerative Diseases and Stroke” (Molecules, 2021).

For orientation: melting point means the temperature, or range, at which the solid turns liquid.

Like-named read-outs stand apart in the source and are kept apart here.

Data set [1] relates to SH-SY5Y cells. Put plainly: Per se toxicity, MTT reduction, SH-SY5Y cells. The data set is classed as cell-based. How it is done: (§1) The neuroblastoma SH-SY5Y cell line was obtained from the American Type Culture Collection (ATCC-CRL-2266), maintained and cultured in a 1:1 mixture of MEM and F12 media with 10% of fetal bovine serum (FBS), according to procedures previously described. For fluorescence-based [Ca^2+]c measurements, SH-SY5Y cells were seeded in clear-bottomed, 96-well black plates at a density of 40,000 cells/well. For viability assays, SH-SY5Y cells were seeded in 48-well plates at a density of 70,000 cells/well following the procedure recently reported. Rat cortical embryonic neurons were prepared from 19-day-old embryos directly seeded in the plate well treated with poly-D-lysine in neurobasal medium (Gibco 21103, Madrid, Spain) supplemented with 1% of L-glutamine (Sigma, G6392), 0.5% of penicillin/streptomycin and 0.1% of gentamincine. In fluorescence-based [Ca^2+]c measurement, neurons were seed at clear-bottomed, 96-well black plates at a density of 30,000 cells/well. For viability assays, the rat cortical neurons were also seeded in 48-well plates at a density of 40,000 cells/well. All the biological assays were conducted under sterile conditions.
The per se toxicity of the new synthetized compounds was assessed in both cell cultures by the method of MTT reduction. […] The viability of cultures was measured 20 h later, following a procedure recently described. […]

The nature of data set [2]: Solubility as observed during testing. It is filed as physicochemical.
Data set [3] deals with VGCC. Put plainly: Blockade of 70 mM K+-evoked cytosolic Ca2+ elevation (Fluo-4/AM) in SH-SY5Y cells. It is filed as cell-based. As to the method:
as §1
(§2) To assess the blocking effect of compounds on the VGCC, we used SH-SY5Y cells charged with the Ca^2+-sensitive fluorescent dye Fluo-4/AM at 10 μM in Krebs-HEPES buffer, following a protocol recently described. Compounds were incubated at the desired concentrations (1, 3, 10, and 30 μM). The Ca^2+ entry was favored by addition of K^+ 70 mM to the extracellular medium. To evaluate the blocking effect of compounds on NMDA receptors, we have followed a protocol recently reported by our research group. Rat cortical neurons were charged with Fluo-4/AM at 3 μM in Krebs-HEPES buffer and compounds incubated at same concentrations than before. To stimulate Ca^2+ entry through the NMDA-sensitive glutamate receptors, NMDA was applied at 10 μM. In both cases, fluorescence oscillations as result of the [Ca^2+]c increases were real-time monitored in a multi-well fluorescence plate reader (FluoStar Optima, BMG, Germany), with excitation and emission wavelengths of 485 and 520 nm, respectively. Data were calculated as fluorescence increase (ΔF), according to the formula: ΔF=Fx−Fo /Fmax−Fmin where Fx is the maximum fluorescence obtained after Ca^2+ entry stimulation, F0 is the averaged fluorescence before, Fmax is the maximum fluorescence of the well obtained by treating cells with 5% Triton X-100, and the Fmin is the minimum fluorescence of well obtained by adding MnCl2 1 M to the previously Triton-lysed cells. The ΔF data were normalized respect to the control (ΔFc). Data are presented as percentage of blockade (100% ΔF) at the concentration of 10 μM, or as IC50, i.e., the concentration of compound capable of halving the ΔFc (%ΔF = 50).

The subject of data set [4] is NMDA receptors. Put plainly: Blockade of NMDA-evoked cytosolic Ca2+ elevation (Fluo-4/AM) in rat cortical neurons. The data set is classed as cell-based. To be noted: for IC50: rat cortical embryonic neurons, NMDA 10 μM, compounds 1 to 30 μM, read-out: IC50, NMDA-evoked [Ca2+]c elevation. As to the method:
as §1
as §2, with “To evaluate the blocking effect of compounds on NMDA receptors, we have followed a protocol recently reported by our research group.” left out, “(ΔFc).” for “(ΔFc). Data are presented as percentage of blockade (100% ΔF) at the concentration of 10 μM, or as IC50, i.e., the concentration of compound capable of halving the ΔFc (%ΔF = 50).”

Data set [5] has as its system SH-SY5Y cells. Put plainly: Neuroprotection against rotenone/oligomycin A (R/O), MTT, SH-SY5Y cells. It is filed as cell-based. As to conditions: R/O 30/10 μM, compounds 10 μM. How it is done:
as §1
(§3) The effect of compounds on the SH-SY5Y cells and rat cortical neurons viability compromised of different toxics was also evaluated by method of MTT reduction. Twenty-four hours after seeding, SH-SY5Y cells were preincubated with compounds at the concentration of 10 μM for 24 h. Afterwards, MEM/F12 medium was replaced by one fresh with 1% FBS, compounds at the same concentration, and rotenone/oligomycin A administered to media at the concentration of 30/10 μM, respectively. The cultures’ viability was measured 20 h later, following the MTT procedure recently described. As reference neuroprotective compound, melatonin 10 nM was selected. In the case of the rat cortical neurons, 7 days after seeding in 48-well plates, neurons were preincubated adding the compounds at a final concentration of 10 μM for 24 h. Then, toxic stimuli of 50 µM of glutamate was added to the wells. After 20 h, cell viability was measured by the MTT procedure. Here, the reference protective compound used was memantine (30 nM).

Data set [6] has as its system rat cortical neurons. Put plainly: Neuroprotection against glutamate 50 μM, MTT, rat cortical neurons. It is filed as cell-based. To be noted: compounds 10 μM. As to the method: as §1, §3
Data set [7] is described as follows: Blood-brain barrier permeation assay (PAMPA), porcine brain lipid. It is filed as in vitro ADME. To be noted: pH 7.4, threshold value of 40 nm/s, read-out: Pe, in vitro permeability (PAMPA-BBB). How it is done:
The parallel artificial membrane permeation assay (PAMPA) was used to predict the capacity of compounds to cross the blood–brain barrier (BBB) by passive diffusion, in a similar manner as previously described. Compounds were dissolved in 10 mM phosphate-buffered saline (PBS) buffer (pH 7.4) to the concentration of 100 µM. The filter membrane of the donor 96-well plate (Multiscreen IP sterile clear plate PDVF membrane, pore size […]) was impregnated with 4 µL of porcine brain lipid (PBL) (Avanti Polar Lipids, Inc., Alabaster, AL, USA) in dodecane (20 mg/mL), and after 5 min, 180 µL of each compound solution was added. The acceptor 96-well plate (Multiscreen, Millipore Corp. Burlington, MA, USA) was filled with 180 µL of PBS and 1% of DMSO. Finally, the donor filter plate was carefully put on the acceptor plate to form a “sandwich”, which was left undisturbed for 4 h at rt. After incubation, an UV plate reader determined the concentration of compounds in both acceptor and donor wells (150 µL/well) as the maximum absorption wavelength of each compound. Concentration of the compounds in the donor and acceptor well, and equilibrium concentration were calculated from the standard curve and expressed as the permeability (Pe), according to the following formula: logPe=logC×−ln1−drugacceptor/drugequilibrium whereC=Vdonor×Vaceptor/Vdonor+Vaceptor×Area×Time)
Results are expressed as mean ± SEM of three different experiments in duplicate.
On the technique in general: In PAMPA a lipid-coated filter parts donor from acceptor wells.

In data set [8] the test system is rat cortical neurons. Put plainly: Per se toxicity, MTT reduction, rat cortical neurons. It is filed as cell-based. As to conditions: 48 h. As to the method: as §1
The per se toxicity of the new synthetized compounds was assessed in both cell cultures by the method of MTT reduction. After 24 h of seeding, SH-SY5Y cells were preincubated with compounds at different concentrations (1, 3, 10, and 30 μM) for 24 h. Afterwards, MEM/F12 medium was replaced by one fresh with 1% FBS with the compounds at the same concentration. The viability of cultures was measured 20 h later, following a procedure recently described. In the case of rat cortical neurons, 7 days after seeding, compounds were added to the wells to reach a final concentration of 1, 3, 10, and 30 μM. Forty-eight hours later, neuron viability was measure by the same procedure as the one described for SH-SY5Y cells.

The mark [9] stands for this setting: compounds 1 to 30 μM, Fluo-4/AM, read-out: IC50, concentration halving the 70 mM K+-evoked Ca2+ elevation.

For `CC(C)c1ccc(C2SCC(=O)Nc3ccc(Cl)cc32)cc1` (centres unmarked) [compound 12, 7-Chloro-5-(4′-isopropylphenyl)-3,5-dihydro-4,1-benzothiazepin-2-(1H)-one], the melting point lay within 240 to 243 °C. In addition, the “Effect on cell viability of SH-SY5Y cells (per se toxicity)” value in [1] (compounds at 1, 3, 10 and 30 μM) is recorded as “did not produce a dramatic loss of cell viability”. For the same compound, the “Solubility (observation)” value in data set [2] was “some solubility problems were appreciated”.
With `CC(C)c1cccc(C2SCC(=O)Nc3ccc(Cl)cc32)c1` (centres unmarked) [compound 13, 7-Chloro-5-(3′-isopropylphenyl)-3,5-dihydro-4,1-benzothiazepin-2-(1H)-one], the melting point was 218 to 220 °C. In addition, the “Effect on cell viability of SH-SY5Y cells at 30 μM” value in [1] (30 μM) is on record as “remarkable cytotoxic profile”.
For `CC(C)c1ccccc1C1SCC(=O)Nc2ccc(N(C)C)cc21` (centres unmarked) [compound 21, 7-Dimethylamino-5-(2′-isopropylphenyl)-3,5-dihydro-4,1-benzothiazepin-2-(1H)-one], the melting point was in the range of 108 to 112 °C. Further, the “Decrease of K+-evoked Ca2+ signaling compared with nifedipine” value in [3] (compounds 10 μM, nifedipine 10 μM) is listed as “in a similar manner or even better than the reference compound nifedipine”. In addition, in data set [3] (read-out: IC50, concentration halving the 70 mM K+-evoked Ca2+ elevation, compounds 1 to 30 μM, Fluo-4/AM), the IC50 stood at 5.4 µM. For the same compound, in data set [4], the IC50 amounted to 6.2 µM. For the same compound, the “Mitigation of the NMDA-elicited Ca2+ increase compared with memantine” value in data set [4] (rat cortical neurons, compounds 10 μM, memantine 10 μM) is on record as “noticeable mitigation of the NMDA-elicited Ca^2+ increase, even higher than that exerted by the reference compound memantine”. In addition, in data set [5], the “Protection against R/O-induced oxidative stress (in words)” value was “clear trend to protect against oxidative stress”. For the same compound, the “Protection against glutamate-elicited neurotoxicity (in words)” value in data set [6] is “statistically significant dissipation of the glutamate-elicited neurotoxicity”. For the same compound, the Papp at 4 h, 100 µM in [7] is more than 4 ×10⁻⁶ cm/s.
Consider `COc1ccccc1C1SCC(=O)Nc2ccccc21` (centres unmarked) [compound 33, 5-(2′-Methoxyphenyl)-3,5-dihydro-4,1-benzothiazepin-2-(1H)-one], for which the melting point fell in the range of 216 to 218 °C. Besides, in [8], the “Effect on cell viability of rat cortical neurons at 30 μM” value is “slightly reduced cell viability in a significant manner”. In addition, the IC50 in data set [3] (setting [9]) is more than 30 µM. The IC50 in data set [4] was more than 30 µM. In addition, in data set [6], the “Protection against glutamate-elicited neurotoxicity (in words)” value was “statistically significant dissipation of the glutamate-elicited neurotoxicity”.
Compound `O=C1CSC(c2ccccc2)c2cnccc2N1` (centres unmarked) [compound 38, 5-Phenyl-3,5-dihydropyrido[4,3-e][1,4]thiazepin-2-(1H)-one] had a melting point of 138 to 143 °C. Further, in [3] (setting [9]), the IC50 came out at 28.5 µM. Further, the IC50 in data set [4] is more than 30 µM. In data set [5], the “Protection against R/O-induced oxidative stress (in words)” value is on record as “neuroprotective profile against oxidative stress”. For the same compound, the “Protection against glutamate-elicited neurotoxicity (in words)” value in data set [6] was “nicely recovered cell viability”.
